Where a SMILES comes first, the peptide text is derived from it. Bridges are numbered along the chain shown (N, C = ends). [ ]: non-standard residue; d: D form. The star is where a group is joined. Bip = N[C@@H](Cc1ccc(-c2ccccc2)cc1)C(=O)O; 4Pal = N[C@@H](Cc1ccncc1)C(=O)O; Cha = N[C@@H](CC1CCCCC1)C(=O)O; Carboxymethyl = O=C(O)C*; NMeA = CN[C@@H](C)C(=O)O; Orn = NCCC[C@H](N)C(=O)O; Aun = NCCCCCCCCCCC(=O)O; Dab = NCC[C@H](N)C(=O)O; AEEA = NCCOCCOCC(=O)O

T1 sequence (Q15116 25-288): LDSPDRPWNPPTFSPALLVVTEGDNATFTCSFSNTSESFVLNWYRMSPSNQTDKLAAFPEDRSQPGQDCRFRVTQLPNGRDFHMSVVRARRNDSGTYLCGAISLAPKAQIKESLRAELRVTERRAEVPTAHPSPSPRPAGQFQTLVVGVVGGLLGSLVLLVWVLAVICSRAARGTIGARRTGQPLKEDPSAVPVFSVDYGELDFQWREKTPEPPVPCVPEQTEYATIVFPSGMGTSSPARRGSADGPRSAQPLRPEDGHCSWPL

The experiment concerns the target T1, PD-1/PD-L1 interaction (PE-labeled human PD-L1-Ig binding to Jurkat cell line over-expressing human PD-1) (Homo sapiens, UniProt Q15116).
T1 construct: expressed in transfected cells; host or cells: Jurkat
The experiment is described as follows: Jurkat-PD-1 Cell Binding High-Content Screening Assay (CBA). As to conditions: Jurkat-hPD-1 cells, PE-labeled PD-L1-Ig 20 nM final; read-out: Jurkat HPD1 PDL1 IC50. An outline of the steps:
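Compound is added first to the PD-1-expressing Jurkat cells and held 2 h at 37 °C in serum-containing DMEM. The fluorescent PD-L1 fusion follows at 20 nM final for 1 h. Fixed, Hoechst-stained cells are then imaged for bound label.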
Turning to `CC(C)C[C@H]1NC(=O)[C@H](C)N(C)C(=O)[C@H](Cc2ccc(OCC(=O)O)cc2)NC(=O)[C@H](Cc2ccc(-c3ccccc3)cc2)NC(=O)[C@H](Cc2ccc(OCC(=O)O)cc2)NC(=O)[C@H](Cc2c[nH]c3ccccc23)NC(=O)[C@H](CC(=O)O)NC(=O)[C@H](Cc2ccncc2)NC(=O)[C@H](Cc2ccc(OCC(=O)O)cc2)NC(=O)CSC[C@@H](C(=O)N[C@@H](CCCN)C(=O)NCCOCCOCC(=O)NCCCCCCCCCCC(=O)O)NC(=O)[C@H]([C@@H](C)O)NC(=O)[C@H](C(C)C)NC(=O)[C@H](CC2CCCCC2)NC(=O)[C@H](CC(N)=O)NC1=O` [Example 1379] ({CH2CO}-Y(Carboxymethyl)[4Pal]DWY(Carboxymethyl)[Bip]Y(Carboxymethyl)[NMeA][dL]N[Cha]VTC[Orn][AEEA][Aun]-OH; thioether N-14), the half-maximal inhibitory concentration (IC50) (as a rule, the concentration at which inhibition is half-maximal) amounted to 175 nM.
Regarding `CC(C)C[C@H]1NC(=O)[C@H](C)N(C)C(=O)[C@H](Cc2ccc(OCC(=O)O)cc2)NC(=O)[C@H](Cc2ccc(-c3ccccc3)cc2)NC(=O)[C@H](Cc2ccc(OCC(=O)O)cc2)NC(=O)[C@H](Cc2c[nH]c3ccccc23)NC(=O)[C@H](CC(=O)O)NC(=O)[C@H](Cc2ccncc2)NC(=O)[C@H](Cc2ccc(OCC(=O)O)cc2)NC(=O)CSC[C@@H](C(=O)N[C@@H](CCN)C(=O)NCCOCCOCC(=O)NCCCCCCCCCCC(=O)O)NC(=O)[C@H](CCCN)NC(=O)[C@H](C(C)C)NC(=O)[C@H](CC2CCCCC2)NC(=O)[C@H](CC(N)=O)NC1=O` [Example 1380] ({CH2CO}-Y(Carboxymethyl)[4Pal]DWY(Carboxymethyl)[Bip]Y(Carboxymethyl)[NMeA][dL]N[Cha]V[Orn]C[Dab][AEEA][Aun]-OH; thioether N-14), the half-maximal inhibitory concentration (IC50) came to 119 nM.
In the case of `CC(C)C[C@H]1NC(=O)[C@H](C)N(C)C(=O)[C@H](Cc2ccc(OCC(=O)O)cc2)NC(=O)[C@H](Cc2ccc(-c3ccccc3)cc2)NC(=O)[C@H](Cc2ccc(OCC(=O)O)cc2)NC(=O)[C@H](Cc2c[nH]c3ccccc23)NC(=O)[C@H](CC(=O)O)NC(=O)[C@H](Cc2ccncc2)NC(=O)[C@H](Cc2ccc(OCC(=O)O)cc2)NC(=O)CSC[C@@H](C(=O)N[C@@H](CCN)C(=O)NCCOCCOCC(=O)NCCCCCCCCCCC(=O)O)NC(=O)[C@H]([C@@H](C)O)NC(=O)[C@H](C(C)C)NC(=O)[C@H](CC2CCCCC2)NC(=O)[C@H](CCN)NC1=O` [Example 1381] ({CH2CO}-Y(Carboxymethyl)[4Pal]DWY(Carboxymethyl)[Bip]Y(Carboxymethyl)[NMeA][dL][Dab][Cha]VTC[Dab][AEEA][Aun]-OH; thioether N-14), the IC50 stood at 27.4 nM.
Take `CC(C)C[C@H]1NC(=O)[C@H](C)N(C)C(=O)[C@H](Cc2ccc(OCC(=O)O)cc2)NC(=O)[C@H](Cc2ccc(-c3ccccc3)cc2)NC(=O)[C@H](Cc2ccc(OCC(=O)O)cc2)NC(=O)[C@H](Cc2c[nH]c3ccccc23)NC(=O)[C@H](CC(=O)O)NC(=O)[C@H](Cc2ccncc2)NC(=O)[C@H](Cc2ccc(OCC(=O)O)cc2)NC(=O)CSC[C@@H](C(=O)N[C@@H](CCCN)C(=O)NCCOCCOCC(=O)NCCCCCCCCCCC(=O)O)NC(=O)[C@H]([C@@H](C)O)NC(=O)[C@H](C(C)C)NC(=O)[C@H](CC2CCCCC2)NC(=O)[C@H](CCN)NC1=O` [Example 1382] ({CH2CO}-Y(Carboxymethyl)[4Pal]DWY(Carboxymethyl)[Bip]Y(Carboxymethyl)[NMeA][dL][Dab][Cha]VTC[Orn][AEEA][Aun]-OH; thioether N-14): the IC50 came to 110 nM.
The result for `CC(C)C[C@H]1NC(=O)[C@H](C)N(C)C(=O)[C@H](Cc2ccc(OCC(=O)O)cc2)NC(=O)[C@H](Cc2ccc(-c3ccccc3)cc2)NC(=O)[C@H](Cc2ccc(OCC(=O)O)cc2)NC(=O)[C@H](Cc2c[nH]c3ccccc23)NC(=O)[C@H](CC(=O)O)NC(=O)[C@H](Cc2ccc(OCC(=O)O)cc2)NC(=O)[C@H]([C@@H](C)O)NC(=O)CSC[C@@H](C(=O)N[C@@H](CCN)C(=O)NCCOCCOCC(=O)NCCCCCCCCCCC(=O)O)NC(=O)[C@H]([C@@H](C)O)NC(=O)[C@H](C(C)C)NC(=O)[C@H](CC2CCCCC2)NC(=O)[C@H](CC(N)=O)NC1=O` [Example 1383] ({CH2CO}-TY(Carboxymethyl)DWY(Carboxymethyl)[Bip]Y(Carboxymethyl)[NMeA][dL]N[Cha]VTC[Dab][AEEA][Aun]-OH; thioether N-14) reads 101 nM; that for `CC(C)C[C@H]1NC(=O)[C@H](C)N(C)C(=O)[C@H](Cc2ccc(OCC(=O)O)cc2)NC(=O)[C@H](Cc2ccc(-c3ccccc3)cc2)NC(=O)[C@H](Cc2ccc(OCC(=O)O)cc2)NC(=O)[C@H](Cc2c[nH]c3ccccc23)NC(=O)[C@H](CC(=O)O)NC(=O)[C@H](Cc2ccc(OCC(=O)O)cc2)NC(=O)[C@H]([C@@H](C)O)NC(=O)CSC[C@@H](C(=O)N[C@@H](CCN)C(=O)NCCOCCOCC(=O)NCCCCCCCCCCC(=O)O)NC(=O)[C@H](CCCN)NC(=O)[C@H](C(C)C)NC(=O)[C@H](CC2CCCCC2)NC(=O)[C@H](CC(N)=O)NC1=O` [Example 1384] ({CH2CO}-TY(Carboxymethyl)DWY(Carboxymethyl)[Bip]Y(Carboxymethyl)[NMeA][dL]N[Cha]V[Orn]C[Dab][AEEA][Aun]-OH; thioether N-14), 193 nM.
In the case of `CC(C)C[C@H]1NC(=O)[C@H](C)N(C)C(=O)[C@H](Cc2ccc(OCC(=O)O)cc2)NC(=O)[C@H](Cc2ccc(-c3ccccc3)cc2)NC(=O)[C@H](Cc2ccc(OCC(=O)O)cc2)NC(=O)[C@H](Cc2c[nH]c3ccccc23)NC(=O)[C@H](CC(=O)O)NC(=O)[C@H](Cc2ccc(OCC(=O)O)cc2)NC(=O)[C@H]([C@@H](C)O)NC(=O)CSC[C@@H](C(=O)N[C@@H](CCN)C(=O)NCCOCCOCC(=O)NCCCCCCCCCCC(=O)O)NC(=O)[C@H](CCC(=O)O)NC(=O)[C@H](C(C)C)NC(=O)[C@H](CC2CCCCC2)NC(=O)[C@H](CC(N)=O)NC1=O` [Example 1386] ({CH2CO}-TY(Carboxymethyl)DWY(Carboxymethyl)[Bip]Y(Carboxymethyl)[NMeA][dL]N[Cha]VEC[Dab][AEEA][Aun]-OH; thioether N-14), the half-inhibitory concentration (IC50) came out at 137 nM.
Take `CC(C)C[C@H]1NC(=O)[C@H](C)N(C)C(=O)[C@H](Cc2ccc(OCC(=O)O)cc2)NC(=O)[C@H](Cc2ccc(-c3ccccc3)cc2)NC(=O)[C@H](Cc2ccc(OCC(=O)O)cc2)NC(=O)[C@H](Cc2c[nH]c3ccccc23)NC(=O)[C@H](CC(=O)O)NC(=O)[C@H](Cc2ccc(OCC(=O)O)cc2)NC(=O)[C@H]([C@@H](C)O)NC(=O)CSC[C@@H](C(=O)N[C@@H](CCCN)C(=O)NCCOCCOCC(=O)NCCCCCCCCCCC(=O)O)NC(=O)[C@H]([C@@H](C)O)NC(=O)[C@H](C(C)C)NC(=O)[C@H](CC2CCCCC2)NC(=O)[C@H](CC(N)=O)NC1=O` [Example 1387] ({CH2CO}-TY(Carboxymethyl)DWY(Carboxymethyl)[Bip]Y(Carboxymethyl)[NMeA][dL]N[Cha]VTC[Orn][AEEA][Aun]-OH; thioether N-14): the half-inhibitory concentration (IC50) amounted to 401 nM.
Take `CC(C)C[C@H]1NC(=O)[C@H](C)N(C)C(=O)[C@H](Cc2ccc(OCC(=O)O)cc2)NC(=O)[C@H](Cc2ccc(-c3ccccc3)cc2)NC(=O)[C@H](Cc2ccc(OCC(=O)O)cc2)NC(=O)[C@H](Cc2c[nH]c3ccccc23)NC(=O)[C@H](CC(=O)O)NC(=O)[C@H](Cc2ccc(OCC(=O)O)cc2)NC(=O)[C@H]([C@@H](C)O)NC(=O)CSC[C@@H](C(=O)N[C@@H](CCCN)C(=O)NCCOCCOCC(=O)NCCCCCCCCCCC(=O)O)NC(=O)[C@H](CCC(=O)O)NC(=O)[C@H](C(C)C)NC(=O)[C@H](CC2CCCCC2)NC(=O)[C@H](CC(N)=O)NC1=O` [Example 1388] ({CH2CO}-TY(Carboxymethyl)DWY(Carboxymethyl)[Bip]Y(Carboxymethyl)[NMeA][dL]N[Cha]VEC[Orn][AEEA][Aun]-OH; thioether N-14): the concentration for half-maximal inhibition (IC50) worked out at 660 nM.
Consider `CC(C)C[C@H]1NC(=O)[C@H](C)N(C)C(=O)[C@H](Cc2ccc(OCC(=O)O)cc2)NC(=O)[C@H](Cc2ccc(-c3ccccc3)cc2)NC(=O)[C@H](Cc2ccc(OCC(=O)O)cc2)NC(=O)[C@H](Cc2c[nH]c3ccccc23)NC(=O)[C@H](CC(=O)O)NC(=O)[C@H](Cc2ccc(OCC(=O)O)cc2)NC(=O)[C@H]([C@@H](C)O)NC(=O)CSC[C@@H](C(=O)N[C@@H](CCCN)C(=O)NCCOCCOCC(=O)NCCCCCCCCCCC(=O)O)NC(=O)[C@H](CO)NC(=O)[C@H](C(C)C)NC(=O)[C@H](CC2CCCCC2)NC(=O)[C@H](CC(N)=O)NC1=O` [Example 1389] ({CH2CO}-TY(Carboxymethyl)DWY(Carboxymethyl)[Bip]Y(Carboxymethyl)[NMeA][dL]N[Cha]VSC[Orn][AEEA][Aun]-OH; thioether N-14), for which the concentration for half-maximal inhibition (IC50) was found to be 227 nM.
`CC(C)C[C@H]1NC(=O)[C@H](C)N(C)C(=O)[C@H](Cc2ccc(OCC(=O)O)cc2)NC(=O)[C@H](Cc2ccc(-c3ccccc3)cc2)NC(=O)[C@H](Cc2ccc(OCC(=O)O)cc2)NC(=O)[C@H](Cc2c[nH]c3ccccc23)NC(=O)[C@H](CC(=O)O)NC(=O)[C@H](Cc2ccc(OCC(=O)O)cc2)NC(=O)[C@H]([C@@H](C)O)NC(=O)CSC[C@@H](C(=O)N[C@@H](CCN)C(=O)NCCOCCOCC(=O)NCCCCCCCCCCC(=O)O)NC(=O)[C@H]([C@@H](C)O)NC(=O)[C@H](C(C)C)NC(=O)[C@H](CC2CCCCC2)NC(=O)[C@H](CCN)NC1=O` [Example 1390] ({CH2CO}-TY(Carboxymethyl)DWY(Carboxymethyl)[Bip]Y(Carboxymethyl)[NMeA][dL][Dab][Cha]VTC[Dab][AEEA][Aun]-OH; thioether N-14): the IC50 came to 27.3 nM.
With `CC(C)C[C@H]1NC(=O)[C@H](C)N(C)C(=O)[C@H](Cc2ccc(OCC(=O)O)cc2)NC(=O)[C@H](Cc2ccc(-c3ccccc3)cc2)NC(=O)[C@H](Cc2ccc(OCC(=O)O)cc2)NC(=O)[C@H](Cc2c[nH]c3ccccc23)NC(=O)[C@H](CC(=O)O)NC(=O)[C@H](Cc2ccc(OCC(=O)O)cc2)NC(=O)[C@H]([C@@H](C)O)NC(=O)CSC[C@@H](C(=O)N[C@@H](CCN)C(=O)NCCOCCOCC(=O)NCCCCCCCCCCC(=O)O)NC(=O)[C@H](CO)NC(=O)[C@H](C(C)C)NC(=O)[C@H](CC2CCCCC2)NC(=O)[C@H](CCN)NC1=O` [Example 1391] ({CH2CO}-TY(Carboxymethyl)DWY(Carboxymethyl)[Bip]Y(Carboxymethyl)[NMeA][dL][Dab][Cha]VSC[Dab][AEEA][Aun]-OH; thioether N-14), the concentration for half-maximal inhibition (IC50) came out at 25.8 nM.

Source of the values: patent US20260070945A1, “MACROCYCLIC IMMUNOMODULATORS” (Bristol-Myers Squibb Company, priority 2022, published 2026).
